# Experimental data as given in patent US20100022584A1, “Modulation of Glutamine Synthetase Activity” (priority 2006, published 2010).
# Where a chain is given by its changes, count along the chain named.
# What was measured:
# Test in all cases: HPLC forward-reaction glutamine synthetase assay with serine protease inhibitors
# Format in all cases: biochemical, E. coli
# [1] = target: T1, deadenylylated WT enzyme, WT (DD) glutamine synthetase (Escherichia coli, UniProt P0A9C5); settings: 1 mM inhibitor; for % Reduction in ADP-based Specific Activity / % Reduction in Glutamine-based Specific Activity: 60 min pre-incubation, vs no-inhibitor control, positive = activity increased; for % Conversion: glutamine-based divided by ADP-based specific activity
# T1 construct: made in house; host or cells: E. coli carrying pBSK-ECgln (pBluescript II SK+), continuous culture; YMC11 is the expression strain named for this plasmid
# T1 sequence (P0A9C5 2-469 limits assumed): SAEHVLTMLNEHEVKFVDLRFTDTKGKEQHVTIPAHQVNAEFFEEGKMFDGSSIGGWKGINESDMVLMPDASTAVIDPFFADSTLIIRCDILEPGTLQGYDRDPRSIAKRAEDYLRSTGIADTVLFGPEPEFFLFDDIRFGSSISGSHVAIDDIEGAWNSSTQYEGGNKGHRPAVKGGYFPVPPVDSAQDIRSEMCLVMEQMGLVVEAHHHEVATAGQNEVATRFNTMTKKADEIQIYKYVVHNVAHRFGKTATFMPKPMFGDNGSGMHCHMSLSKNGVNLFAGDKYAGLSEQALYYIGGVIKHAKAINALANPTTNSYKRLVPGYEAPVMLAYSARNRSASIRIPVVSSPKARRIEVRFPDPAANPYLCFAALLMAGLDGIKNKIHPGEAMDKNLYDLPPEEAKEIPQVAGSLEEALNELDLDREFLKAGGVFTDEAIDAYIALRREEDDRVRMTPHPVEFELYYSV
# Description: (§1) This assay was set up to measure glutamine synthetase activity according to the forward reaction, and measures the amount of glutamine formed from […] of L-glutamate in the presence of MnCO3-ATP (the basis of one reaction) and MgATP (the basis of a second reaction). In addition, the amount of ADP formed is also measured in a separate assay, using the same reagents.
# (§2) All enzyme preparations were adjusted to the same concentration of protein, and added to the assay mixture in a volume of 50 μl. The addition of the enzyme started the reaction, which was then allowed to proceed for 1 hour. The reaction was stopped by the addition of 6 μl of a 50% solution of trichloroacetic acid. Each assay was then aliquoted into 4 HPLC vials (150 μl per vial), two of which were assayed for glutamate and glutamine using a Phenomenex Luna 5 μC18 Column on an Agilent 100 HPLC instrument. The ATP/ADP assays were run on a Chromolith Performance RP-18c column also using an Agilent 100 HPLC instrument.
# (§3) As it is believed that two putative catalytic triads, similar to those in the serine proteases, are involved in the reaction mechanism of glutamine synthetase, certain of the mutants were also assayed by HPLC in the presence of the serine protease inhibitors, AEBSF and PMSF, in order to assess the effect that these inhibitors had on the enzyme. The enzymes assessed were the adenylylated WT enzyme, the deadenylylated WT enzyme, and the mutant enzymes S52A, S52A Y397V, S53A, S53A Y397V, S52A S53A and S52A S53A Y397V. The enzymes were pre-incubated for 60 minutes in the presence of 1 mM PMSF or 1 mM AEBSF. A control reaction was set up for each enzyme, which contained no inhibitor. Each enzyme was then added to assays set up as described above. The assay was allowed to proceed for 60 minutes, then stopped by the addition of […] of 50% TCA, after which they were analysed by HPLC. All assays were run in triplicate.
# (§4) In addition to the γ-glutamyl transferase assays, assays were also developed to measure the rate of conversion of ATP and glutamate to ADP and glutamine by HPLC. These were set up as single assays but analysed separately for glutamate and glutamine and ATP and ADP. The conversion rates for glutamate to glutamine, in both the presence of Mn^2+ and Mg^2+ by glutamine synthetase, is referred to as the […] specific activity and is presented in μmoles/min/mg protein. The conversion rates for ATP to ADP, in both the presence of Mn^2+ and Mg^2+ by glutamine synthetase, is referred to as the ADP-based specific activity and is presented in μmoles/min/mg protein. The percentage of conversion was also calculated by dividing the glutamine-based specific activity by the ADP-based specific activity, and this value is interpreted as the ability of the enzyme to complete both steps of the reaction, i.e., glutamate to glutamine and ATP to ADP, at an equivalent level of efficiency.
# [2] = target: T2, glutamine synthetase mutant S53A (Escherichia coli, UniProt P0A9C5, S54A); settings: 1 mM inhibitor; for inhibition of the enzyme (in words): HPLC assays; for % Reduction in ADP-based Specific Activity / % Reduction in Glutamine-based Specific Activity: 60 min pre-incubation, vs no-inhibitor control, positive = activity increased; for % Conversion: glutamine-based divided by ADP-based specific activity
# T2 construct: made in house; host or cells: E. coli YMC11 (glutamine synthetase auxotroph), pBluescript II SK+
# T2 sequence (P0A9C5 2-469 S54A limits assumed): T1 sequence (P0A9C5 2-469 limits assumed) with S53A
# Description: as §1, §2, §3, §4
# [3] = target: T3, glutamine synthetase mutant Y397V (Escherichia coli, UniProt P0A9C5, Y398V); settings: 1 mM inhibitor; for inhibition of the enzyme (in words): HPLC assays; for % Conversion: glutamine-based divided by ADP-based specific activity
# T3 construct: made in house; host or cells: E. coli YMC11 (glutamine synthetase auxotroph), pBluescript II SK+
# T3 sequence (P0A9C5 2-469 Y398V limits assumed): T1 sequence (P0A9C5 2-469 limits assumed) with Y397V
SMILES,% Reduction in ADP-based Specific Activity ([1]; Mg assay) [%],% Reduction in Glutamine-based Specific Activity ([1]; Mg assay) [%],% Conversion ([1]; Mg assay) [%],% Reduction in ADP-based Specific Activity ([1]; Mn assay) [%],% Reduction in Glutamine-based Specific Activity ([1]; Mn assay) [%],% Conversion ([1]; Mn assay) [%],inhibition of the enzyme (in words) [2],% Reduction in ADP-based Specific Activity ([2]; Mg assay) [%],% Reduction in Glutamine-based Specific Activity ([2]; Mg assay),% Conversion ([2]; Mg assay) [%],% Reduction in ADP-based Specific Activity ([2]; Mn assay),% Reduction in Glutamine-based Specific Activity ([2]; Mn assay) [%],% Conversion ([2]; Mn assay) [%],inhibition of the enzyme (in words) [3],% Conversion ([3]; Mg assay) [%],% Conversion ([3]; Mn assay) [%]
O=S(=O)(F)Cc1ccccc1 [PMSF],−6.07,−16.55,67,−3.53,−17.69,78,found to inhibit,−17.31,+6.90%,66,+46.95%,−22.73,61,found to inhibit,78,61
NCCc1ccc(S(=O)(=O)F)cc1 [AEBSF],−14.98,−8.43,82,−4.73,−2.23,94,appeared to cause inhibition,−39.50,−1.70%,83,−15.43%,−15.19,115,appeared to cause inhibition,107,108
